Measured values taken from patent US20210283099A1, “CDC7 KINASE INHIBITORS AND USES THEREOF” (SLOAN-KETTERING INSTITUTE FOR CANCER RESEARCH, priority 2010, published 2021).

Tested on: HeLa cells
Test: S phase checkpoint western blot analysis
Assay type: cell-based, human
Conditions: SDS-PAGE and western blot
Experimental: FIG. 15. […] HeLa cells were incubated in the presence of granaticin A or carrier control (DMSO) for the indicated times and whole cell extracts were subjected to SDS-PAGE and western blot analysis. Asyn=asynchronously growing HeLa cells. HU=HeLa cells exposed to hydroxyurea for the indicated time. HU was used as a control for DNA damaging agent that is known to […] the DNA damage checkpoint response. Again, we observed that Mcm2 mobility is shifted in the cells treated with granaticin A. MCM2 mobility is not affected by HU. Activation of the DNA damage/replication checkpoint correlates with ATM/ATR dependent phosphorylation of Chk1 at Ser345.

NC(=O)NO [HU, hydroxyurea, reference compound]
Mcm2 mobility: not affected
